Target: T1, interaction of Gal3 and Abeta (1-42) oligomer (Homo sapiens, UniProt P17931)
T1 construct: His
Assay: Gal3-Abeta (1-42) oligomer blocking ELISA
Format: binding
Settings: at 10,000 nM
Protocol: To identify Gal3-targeted antibodies with the ability to block the interaction of Gal3 and Abeta, purified Gal3 and Abeta (1-42) peptide and oligomer were incubated in the presence (or absence) of various Gal3-targeted or control antibodies, or without antibody, and protein interaction was evaluated by ELISA.
The plate was incubated for an hour at room temperature with gentle rocking. Thereafter, the plate was washed three times with PBST. […] The plate was incubated at room temperature for an hour with gentle rocking and then washed three times with PBST. […] Percent blockade of Gal3-Abeta (1-42) peptide or oligomer interaction was calculated as the fraction of signal obtained in the absence of antibody with the background signal subtracted.
The plate was incubated for an hour at room temperature with gentle rocking. Thereafter, the plate was washed three times with PBST. […] The plate was incubated at room temperature for an hour with gentle rocking and then washed three times with PBST. […] Percent blockade of Gal3-Abeta (1-42) oligomer interaction was calculated as the fraction of signal obtained in the absence of antibody or inhibitor with the background signal subtracted.

T1 sequence (P17931 2-250 limits assumed): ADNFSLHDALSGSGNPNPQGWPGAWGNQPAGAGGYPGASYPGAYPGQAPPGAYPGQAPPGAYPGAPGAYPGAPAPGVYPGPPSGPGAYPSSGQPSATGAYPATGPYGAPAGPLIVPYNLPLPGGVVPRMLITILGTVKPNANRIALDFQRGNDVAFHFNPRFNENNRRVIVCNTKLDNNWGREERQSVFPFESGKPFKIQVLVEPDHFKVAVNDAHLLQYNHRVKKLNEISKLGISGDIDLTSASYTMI

Structure (SMILES): OC[C@H]1O[C@@H](S[C@@H]2O[C@H](CO)[C@H](O)[C@H](n3cc(-c4cccc(F)c4)nn3)[C@H]2O)[C@H](O)[C@@H](n2cc(-c3cccc(F)c3)nn2)[C@H]1O [TD139]
- Percent blockade of Gal3-Abeta (1-42) oligomer interaction: at most 19%

— US20250145722A1, “ANTI-GAL3 ANTIBODIES AND METHODS OF USE” (TrueBinding, Inc., priority 2020, published 2025)
